Results on 54 compounds are retold here after patent EP4711356A1, “TETRAHYDROCARBAZOLE DERIVATIVE, PHARMACEUTICAL COMPOSITION, AND USE THEREOF” (Nain Biotech (Hangzhou) Co., Ltd., priority 2023, dated 2024).

This test concerns HeLa cells. Briefly: Cell-based pharmacodynamic assay (CellTiter-Glo proliferation inhibition), HeLa. The conditions noted are these: human cervical cancer HeLa cells; 72 hours incubation; CellTiter-Glo luminescence; read-out: IC50 against HeLa cells. The procedure:
Complete media such as RPMI 1640 (Gibco, A1049101), EMEM (ATCC, 30-2003), DMEM (Gibco, C11995500CP), McCoy's 5A (Gibco, 16600082), and F-12K (ATCC, 30-2004) were prepared by supplementing with varying concentrations of FBS (Biological Industries, 04-002-1A) and 1% Penicillin-Streptomycin (Gibco, 15140122) and was thoroughly mixed. Tumor cell lines including HeLa (ATCC, CCL-2; EMEM + 10% FBS), TOV-21G (Cobioer, CBP60292; 1:1 mixture of MCDB 105 and Medium 199 + 15% FBS), OVCAR-3 (ATCC, HTB-161; RPMI 1640 + 20% FBS + 0.01 mg/ml bovine insulin), SK-OV-3 (ATCC, HTB-77; McCoy's 5A + 10% FBS), A2780 (Cobioer, CBP60283; RPMI 1640 + 10% FBS), OC316 (Cobioer, CBP60620; RPMI 1640 + 10% FBS), HuH-7 (Cobioer, CBP60202; DMEM + 10% FBS), SNU-398 (ATCC, CRL-2233; RPMI 1640 + 10% FBS), NCI-H2286 (ATCC, CRL-5938; RPMI 1640 + 5% FBS), NCI-H82 (ATCC, HTB-175; RPMI 1640 + 10% FBS), A549 (ATCC, CCL-185; F-12K + 10% FBS), SK-MEL-3 (ATCC, HTB-69; McCoy's 5A + 15% FBS), PSN-1 (Cobioer, CBP61215; RPMI 1640 + 10% FBS), LoVo (ATCC, CCL-229; F-12K + 10% FBS), DLD-1 (ATCC, CCL-221; RPMI 1640 + 10% FBS), HCT-15 (ATCC, CCL-225; RPMI 1640 + 10% FBS), A498 (ATCC, HTB-44; EMEM + 10% FBS), LNCaP (ATCC, CRL-1740; RPMI 1640 + 10% FBS), SNU-1 (ATCC, CRL-5971; RPMI 1640 + 10% FBS), SCC-9 (Cobioer, CBP60428; DMEM/F12 (1:1) + 10% FBS + 0.5 mM sodium pyruvate + 400 ng/ml hydrocortisone), SU-DHL-5 (ATCC, CRL-2958; RPMI 1640 + 10% FBS), Toledo (ATCC, CRL-2631; RPMI 1640 + 10% FBS), and SJCRH30 (ATCC, CRL-2061; RPMI 1640 + 10% FBS) were thawed. Cells were passaged approximately twice, and those in good growth condition (typically passages 4-6) were selected for experiments. The medium was aspirated, and the cells were washed once with 0.25% trypsin (Invitrogen, 25200-072). The waste liquid was discarded, and 3 mL of fresh trypsin was added to the culture flask for digestion. When the cells began to detach, 9 mL of complete medium was added to neutralize the trypsin digestion, and the mixture was gently mixed. The cell suspension was transferred to a centrifuge tube using a pipette and centrifuged at 1000 rpm for 5 minutes. The supernatant was discarded, and 5 mL of medium was added to the centrifuge tube to gently resuspend the cells evenly. The cell concentration was adjusted to 1×10^4/mL-3×10^4/mL using a cell counter (Beckman Coulter, Vi-cellTM XR). The cell suspension was added to a 96-well plate (Corning, 3903) at 100 µL/well. The plate was labeled with details such as cell name, seeding density, and date, and then placed in a CO2 incubator (Thermo, Thermo 3111) overnight. Test compounds were prepared as 20 mM stock solutions in DMSO (Sigma, D4540-1L) and added to the corresponding cell wells using an HPD300 automated dispenser according to the designed layout. The plates were incubated in a 37°C, 5% CO2 incubator for 72 hours. CellTiter-Glo Buffer was thawed at room temperature. The lyophilized CellTiter-Glo substrate was equilibrated to room temperature. The CellTiter-Glo Buffer was added to the CellTiter-Glo substrate and thoroughly mixed. The cell plates were removed and equilibrated to room temperature, and 50 µL of the mixed CellTiter-Glo reagent was added to each well. The plates were protected from light and shaken for 10 minutes, followed by incubation for 10 minutes. The plates were placed in an Enspire reader (luminescence measurement time: 0.5 s) to record luminescence results. The inhibition rate was calculated using the following formula: Inhibition rate (%) = (1 - (RLU_compound - RLU_blank) / (RLU_DMSO - RLU_blank)) × 100%. Dose-response curves were plotted using XLFit to calculate IC50 values. A four-parameter model was used: [fit = (A + ((B - A) / (1 + ((C/x) ^ D)))]. The test results for HeLa cells are shown in Table 1. Table 1: IC50 values of some test compounds against human cervical cancer HeLa cells
(ATP-based viability assays read luminescence as a measure of living cells.)

What is called IC50 is the concentration that gives 50% inhibition. In the case of `C#CC(C)OC(=O)c1cccc2[nH]c3c(c12)CCCC3=O` (racemic) [Compound B36], the IC50 was no more than 200 nM.
Regarding `CCOC(=O)c1cccc2c1c1c(n2C(=O)CCCCC(F)F)C(=O)CCC1` [Compound C51], the IC50 is no more than 200 nM.
On to `CCOC(=O)c1cccc2c1c1c(n2C(=O)c2ccc(C)cc2)C(=O)CCC1` [Compound C23], for which the IC50 was no more than 200 nM.
In the case of `Cc1ccc2[nH]c3c(c2c1)C(C)CCC3=NCC(=O)OC(C)(C)C` (stereo not drawn) [Compound E49] it was no more than 500 nM; in that of `CC(O)CCC(C)OC(=O)c1cccc2[nH]c3c(c12)CCCC3=O` (stereo not drawn) [Compound B141], no more than 200 nM; in that of `Cc1cc(-c2cccc3[nH]c4c(c23)CCCC4=O)ccn1` [Compound B97], no more than 500 nM.
In the case of `CC(C)(C)COC(=O)c1cccc2[nH]c3c(c12)CCCC3=O` [Compound B40], the half-maximal inhibitory concentration (IC50) was no more than 200 nM.
Turning to `O=C1CCCc2c1[nH]c1cccc(C(=O)OCc3ccccc3)c21` [Compound B34], the IC50 is no more than 500 nM.
Consider `COC(=O)c1ccc(F)c2[nH]c3c(c12)CCCC3=O` [Compound B18], for which the IC50 is no more than 500 nM.
For `CCOC(=O)c1cccc2c1c1c(n2C(=O)C#CC2(C)COC2)C(=O)CCC1` [Compound C43], the IC50 was no more than 200 nM.
The result for `CCOC(=O)c1cccc2c1c1c(n2C(=O)c2ccc(C)cn2)C(=O)CCC1` [Compound C27] reads no more than 200 nM; that for `CC1(COC(=O)c2cccc3[nH]c4c(c23)CCCC4=O)COC1` [Compound B140], no more than 200 nM.
Regarding `COC(=O)c1cccc2[nH]c3c(c12)CCCC3=NC(C)C` [Compound E47], the IC50 is no more than 200 nM.
In the case of `Cc1cccc2[nH]c3c(c12)CCCC3=NCCO` [Compound E54] it was no more than 200 nM; in that of `CCOC(=O)c1cccc2c1c1c(n2C(=O)C2CCOCC2)C(=O)CCC1` [Compound C17], no more than 200 nM.
In the case of `CCOC(=O)c1cccc2c1c1c(n2C(=O)c2ccccc2O)C(=O)CCC1` [Compound C31] it was no more than 200 nM.
On to `COC(=O)c1cccc2[nH]c3c(c12)CCCC3=O` [Compound B10], for which the IC50 is no more than 200 nM.
For the compound `Cc1ccc2[nH]c3c(c2c1)CCCC3=NC(CC(=O)OC(C)(C)C)C(=O)OC(C)(C)C` (stereo not drawn) [Compound E55], the IC50 is no more than 200 nM.
For the compound `O=C1CCCc2c1[nH]c1cccc(C(=O)OC3CCC34CC4)c21` (racemic) [Compound B136], the IC50 was no more than 200 nM.
In the case of `COC(=O)c1c(OC)ccc2[nH]c3c(c12)CCCC3=O` [Compound B91], the IC50 is no more than 200 nM.
For the compound `O=C1CCCc2c1[nH]c1cccc(C(=O)OC3CCOCC3)c21` [Compound B30], the IC50 was no more than 200 nM.
In the case of `CCOC(=O)c1cccc2c1c1c(n2C(=O)c2cc(C)cc(OCC)n2)C(=O)CCC1` [Compound C32] it was no more than 200 nM.
On to `CCOC(=O)c1c(C)ccc2[nH]c3c(c12)CCCC3=O` [Compound B117], for which the IC50 was no more than 200 nM.
The result for `N#Cc1cccc2[nH]c3c(c12)CCCC3=O` [Compound B61] reads no more than 200 nM.
In the case of `CC(O)c1cccc2[nH]c3c(c12)CCCC3=O` (stereo not drawn) [Compound B105] it was no more than 500 nM; in that of `Cc1ccc2[nH]c3c(c2c1)CCCC3=NC1CC(C(N)=O)C1` (stereo not drawn) [Compound E09], no more than 500 nM.
For the compound `CCOC(=O)c1cccc2c1c1c(n2C(=O)C2COC2)C(=O)CCC1` [Compound C38], the IC50 was no more than 200 nM.
For the compound `CC(=O)c1cccc2[nH]c3c(c12)CCCC3=O` [Compound B82], the IC50 is no more than 200 nM.
For `CCOC(=O)c1cccc2c1c1c(n2C(=O)CN2CCN(C)CC2)C(=O)CCC1` [Compound C34], the IC50 is no more than 200 nM.
The result for `COCCOC(=O)c1cccc2[nH]c3c(c12)CCCC3=O` [Compound B38] reads no more than 200 nM; that for `CSCCC(N=C1CCCc2c1[nH]c1ccc(C)cc21)C(=O)OC(C)(C)C` (stereo not drawn) [Compound E71], no more than 200 nM; that for `C#Cc1ccc2[nH]c3c(c2c1C(=O)OCC)CCCC3=O` [Compound B153], no more than 200 nM.
In the case of `CC(OC(=O)c1cccc2[nH]c3c(c12)CCCC3=O)C(=O)N(C)C` (racemic) [Compound B37] it was no more than 1000 nM; in that of `CCOC(=O)c1cccc2c1c1c(n2C(=O)C2CCOC(C)(C)C2)C(=O)CCC1` (racemic) [Compound C37], no more than 200 nM; in that of `CCOC(=O)c1cccc2c1c1c(n2C(=O)CCCCCO)C(=O)CCC1` [Compound C55], no more than 200 nM.
The result for `CCOC(=O)c1cccc2c1c1c(n2C(=O)C2(C)CC2(F)F)C(=O)CCC1` (racemic) [Compound C28] reads no more than 200 nM; that for `O=C1CCCc2c1[nH]c1cccc(C(=O)OC3CC3)c21` [Compound B26], no more than 200 nM.
For the compound `CCOC(=O)c1cccc2c1c1c(n2C(=O)C2(C)CCOCC2)C(=O)CCC1` [Compound C45], the IC50 is no more than 200 nM.
In the case of `O=C1CCCc2c1[nH]c1cccc(C(=O)OCCC(F)(F)F)c21` [Compound B45] it was no more than 200 nM; in that of `CCOC(=O)c1cccc2c1c1c(n2C(=O)c2ccc(OC)cc2)C(=O)CCC1` [Compound C21], no more than 200 nM.
For the compound `C#CC1(C(=O)Oc2cccc3[nH]c4c(c23)CCCC4=O)CC1` [Compound B121], the concentration for half-maximal inhibition (IC50) was no more than 500 nM.
For `CCOC(=O)c1cccc2c1c1c(n2C(=O)OC2CCN(C)CC2)C(=O)CCC1` [Compound C18], the IC50 is no more than 200 nM.
In the case of `COC(=O)c1c(C)ccc2[nH]c3c(c12)CCCC3=O` [Compound B87] it was no more than 200 nM; in that of `Cc1nc(-c2cccc3[nH]c4c(c23)CCCC4=O)no1` [Compound B99], no more than 200 nM; in that of `O=C1CCCc2c1[nH]c1cccc(-c3cnn(C(F)F)c3)c21` [Compound B156], no more than 200 nM.
For the compound `COC(=O)c1ccc2[nH]c3c(c2c1)CCCC3=NCCO` [Compound E36], the IC50 was no more than 200 nM.
`CCC(CO)N=C1CCCc2c1[nH]c1ccc(C)cc21` (stereo not drawn) [Compound E64]: the IC50 was no more than 500 nM.
The result for `CC(C)(O)C1CN(c2cccc3[nH]c4c(c23)CCCC4=O)C1` [Compound B24] reads no more than 200 nM; that for `Cc1ccc2[nH]c3c(c2c1)CCCC3=NC(Cc1ccc(O)cc1)C(=O)OC(C)(C)C` (stereo not drawn) [Compound E40], no more than 200 nM; that for `CCOC(=O)c1cccc2[nH]c3c(c12)CCC(N1CCC1)C3=O` (racemic) [Compound B132], no more than 500 nM.
The result for `O=C1CCCc2c1[nH]c1cccc(C(=O)OC3COCC3O)c21` (stereo not drawn) [Compound B186] reads no more than 500 nM; that for `CS(=O)(=O)c1cccc2[nH]c3c(c12)CCCC3=O` [Compound B74], no more than 200 nM; that for `COC(=O)c1cccc2[nH]c3c(c12)CCCC3=NC1CCN(C)CC1` [Compound E62], no more than 200 nM.
Consider `Cc1cc(COC(=O)c2cccc3[nH]c4c(c23)CCCC4=O)n[nH]1` [Compound B163], for which the IC50 is no more than 200 nM.
